Earlier results, collected in patent publication US20240342250A1, “COMPOSITION AND METHODS OF TREATMENT USING […]-ENHANCED SUPPLEMENTATION” (Xygenyx Inc., priority 2023, published 2024).
Non-standard residues stand in square brackets, D forms with d. Residues, ends and D or L forms follow the SMILES beside them. Cit = NC(=O)NCCC[C@H](N)C(=O)O

Columns and labels:
symptoms of depression = conditions: patients who did not respond to traditional antidepressant medications
[1] = test system: memory recall and cognitive function; conditions: compared to placebo; 34 pairs of matched adolescent students
skin [2] = test system: skin
[3] = test system: wide dynamic range neurons in the ventroposterolateral nucleus of the thalamus; conditions: is believed
[4] = generally considered safe and well-tolerated at doses of up to
skin [5] = conditions: topical formulations; within four weeks of treatment
skin [6] = conditions: topical, concentrations 0.5-5%
[7] = test system: systemic inflammation, oxidative status, and liver cell metabolism associated with rheumatoid arthritis; conditions: arthritic subjects
[8] = compared to alpha-tocopherol = 1.0
[9] = even when dietary intake occurs in equal portions
[10] = test system: markers of inflammation in the blood; conditions: individuals with metabolic syndrome
[11] = in vivo

CN1c2c([nH]c(N)nc2=O)NCC1CNc1ccc(C(=O)N[C@@H](CCC(=O)O)C(=O)O)cc1 (stereo partly shown) [5-MTHF, 5-methyltetrahydrofolate]
symptoms of depression (symptoms of depression): improved symptoms of depression

C/C=C1\[C@H]2C=C(C)C[C@]1(N)c1ccc(=O)[nH]c1C2 [Huperzine A]
memory recall and cognitive function [1]: significant improvements in memory recall and cognitive function

CC(C)[C@@H]1CC[C@@H](C)C[C@H]1O [Menthol]
increase of transdermal drug uptake, factor (skin [2]): ≥ 10

CCCCCc1cc(O)c2c(c1)OC(C)(C)C1CCC(C)=CC21 (stereo not shown) [THC, Δ-9-tetrahydrocannabinol]
potency in mediating pain relative to morphine [3]: ten times more powerful than morphine

CCNC(=O)CC[C@H](N)C(=O)O [Theanine]
safe and well-tolerated dose [4]: up to 400 mg per day

CC[C@H](C)[C@H](NC(=O)[C@H](CC(=O)O)NC(=O)[C@@H](N)CCCCN)C(=O)N[C@@H](CCCNC(N)=O)C(N)=O [Tripeptide-10 citrulline] (H-KDI[Cit]-NH2)
improvement of suppleness (skin [5]): ≤ 54%

C=CCCCCCCCCC(=O)N[C@@H](Cc1ccccc1)C(=O)O [UP, Undecylenoyl phenylalanine]
time to skin lightening effects (skin [6]): ≥ 7 days

CC12CCC(CC1)C(C)(C)O2 [eucalyptol, Eucalyptol]
increase of transdermal drug uptake, factor (skin [2]): more than 10

Cc1c(C)c2c(c(C)c1O)CC[C@@](C)(CCC[C@H](C)CCC[C@H](C)CCCC(C)C)O2 [α-tocopherol]
progression of age-related macular degeneration (400-500 IU in combination with 10-20 mg beta-carotene and 400-500 mg vitamin C): dramatically reduce the progression of age-related macular degeneration
functional health of sperm (800-900 IU/day): improve functional health of sperm
blood plasma concentration of F2-isoprostane (1600-3200 IU/day): significantly lower blood plasma concentration of F2-isoprostane
reduction of risk of coronary disease (dietary supplementation, doses up to 400 IU/day): up to 34%
reduction of risk of developing neurodegenerative diseases such as Alzheimer's Syndrome or dementia (dietary supplementation, doses up to 400 IU/day, controlled trials): ≤ 24%
reduction in the development of age-related cataracts (in combination with 10-20 mg beta-carotene and 400-500 mg vitamin C): 23%

C=C1CC/C=C(\C)CC[C@@H]2[C@@H]1CC2(C)C [β-caryophyllene]
protein carbonyl groups and myeloperoxidase activity in liver and plasma [7]: eliminated increases of protein carbonyl groups and myeloperoxidase activity
swelling of joints and lymph nodes, circulating and articular leukocytes [7]: reduced swelling of joints and lymph nodes as well as the number of circulating and articular leukocytes

Cc1cc(O)c(C)c2c1O[C@](C)(CCC[C@H](C)CCC[C@H](C)CCCC(C)C)CC2 [β-tocopherol]
relative biological activity [8]: 0.5

Cc1c(O)cc2c(c1C)O[C@](C)(CCC[C@H](C)CCC[C@H](C)CCCC(C)C)CC2 [γ-tocopherol]
concentration in vivo relative to alpha-tocopherol [9]: roughly 10%
relative biological activity [8]: 0.1

Cc1cc(O)cc2c1O[C@](C)(CCC[C@H](C)CCC[C@H](C)CCCC(C)C)CC2 [δ-tocopherol]
markers of inflammation in the blood [10]: reduced markers of inflammation in the blood
relative biological activity [8]: 0.03

HGH: hormone comprising a peptide chain that is synthesized in the pituitary gland
biological half-life [11]: 10-20 minutes
